One may read the IC50 as the concentration that gives 50% inhibition. For orientation: inhibition means how much of the control response was suppressed. A lower inhibition goes with a weak effect. In general, melting point refers to the temperature of the solid-liquid transition.

Residue numbers refer to the chain shown, from its start. Like-named read-outs stand apart in the source and are kept apart here. Marks after values point to notes of the source that are not given here.

The values that follow come from paper PMC7582770, “Synthesis of “All-Cis” Trihydroxypiperidines from a Carbohydrate-Derived Ketone: Hints for the Design of New β-Gal and GCase Inhibitors” (Molecules, 2020).

Series [1] deals with T1, human lysosomal β-glucosidase (GCase) (Homo sapiens, UniProt P04062).
T1 construct: in leukocytes isolated from healthy donors (controls); endogenous in cells; host or cells: human leukocytes from healthy donors, disrupted by sonication (crude homogenate)
T1 sequence (P04062 40-536): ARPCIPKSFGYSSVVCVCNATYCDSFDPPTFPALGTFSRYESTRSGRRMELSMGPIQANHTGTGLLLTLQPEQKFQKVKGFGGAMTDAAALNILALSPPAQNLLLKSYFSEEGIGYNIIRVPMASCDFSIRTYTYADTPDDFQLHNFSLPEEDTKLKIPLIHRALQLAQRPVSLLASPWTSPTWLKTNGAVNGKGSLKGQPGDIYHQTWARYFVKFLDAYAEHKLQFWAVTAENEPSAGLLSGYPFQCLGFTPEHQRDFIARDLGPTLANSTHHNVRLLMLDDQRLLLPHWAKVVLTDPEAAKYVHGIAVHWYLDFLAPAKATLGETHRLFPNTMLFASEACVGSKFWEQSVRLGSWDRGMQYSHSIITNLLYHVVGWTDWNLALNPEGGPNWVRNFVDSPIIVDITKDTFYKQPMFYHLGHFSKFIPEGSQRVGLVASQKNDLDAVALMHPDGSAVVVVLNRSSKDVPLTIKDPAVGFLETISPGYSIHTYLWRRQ
As to conditions: human leukocytes extracts, cited from earlier work; for GCase Inhibition (%): compounds 1 mM.

The target of series [2] is T2, human lysosomal β-galactosidase (β-Gal) (Homo sapiens, UniProt P16278).
T2 construct: in leukocytes isolated from healthy donors (controls); endogenous in cells; host or cells: human leukocytes from healthy donors, disrupted by sonication (crude homogenate)
T2 sequence (P16278 29-677): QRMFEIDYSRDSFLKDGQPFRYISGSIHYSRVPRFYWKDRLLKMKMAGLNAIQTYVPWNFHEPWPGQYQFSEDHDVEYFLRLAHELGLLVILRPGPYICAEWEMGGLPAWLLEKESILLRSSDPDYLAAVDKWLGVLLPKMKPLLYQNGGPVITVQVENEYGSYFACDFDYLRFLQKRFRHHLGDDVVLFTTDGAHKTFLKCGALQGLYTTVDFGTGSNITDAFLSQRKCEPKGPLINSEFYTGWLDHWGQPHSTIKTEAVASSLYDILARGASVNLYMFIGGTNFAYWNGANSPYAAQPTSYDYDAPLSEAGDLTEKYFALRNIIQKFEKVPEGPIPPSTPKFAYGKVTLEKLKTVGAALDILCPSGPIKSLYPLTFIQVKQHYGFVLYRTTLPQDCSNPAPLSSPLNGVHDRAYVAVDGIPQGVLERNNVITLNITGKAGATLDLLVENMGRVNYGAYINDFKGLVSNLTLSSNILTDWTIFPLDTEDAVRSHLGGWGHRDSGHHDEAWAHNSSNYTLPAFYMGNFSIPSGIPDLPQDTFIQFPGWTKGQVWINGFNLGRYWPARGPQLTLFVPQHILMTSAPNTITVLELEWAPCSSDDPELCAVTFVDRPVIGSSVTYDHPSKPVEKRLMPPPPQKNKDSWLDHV
Further details: method as in PMID 32200326. As to conditions: compounds 1 mM; human leukocytes extracts; cited from earlier work.

The target of series [3] is T1, human lysosomal β-glucosidase (GCase). Briefly: GCase inhibition in human leukocyte homogenates. It counts as biochemical. To be noted: compounds 1 mM; human leukocytes extracts. The method, then: (§1) The new compounds were screened at 1 mM concentration towards β-galactosidase (β-Gal) and β-glucosidase (GCase) in leukocytes isolated from healthy donors (controls). Isolated leukocytes were disrupted by sonication, and a Micro BCA Protein Assay Kit (Sigma–Aldrich, St. Louis, MO, USA) was used to determine the total protein amount for the enzymatic assay, according to the manufacturer’s instructions.
GCase activity was measured in a flat-bottomed 96-well plate. Compound solution (3 µL), 4.29 µg/µL leukocytes homogenate (7 µL), and substrate 4-methylumbelliferyl-β-D-glucoside (3.33 mM, 20 µL, Sigma–Aldrich Chemie Gmbh, Munich, Germany)) in citrate/phosphate buffer (0.1:0.2, M/M, pH 5.8) containing sodium taurocholate (0.3%) and Triton X-100 (0.15%) at 37 °C were incubated for 1 h. The reaction was stopped by addition of sodium carbonate (200 µL; 0.5 M, pH 10.7) containing Triton X-100 (0.0025%), and the fluorescence of 4-methylumbelliferone released by β-glucosidase activity was measured in SpectraMax M2 Microplate Reader (λex = 365 nm and λem = 435 nm; Molecular Devices LLC, San Jose, CA, US). Percentage GCase inhibition is given with respect to the control (without compound). Data are mean SD (n = 3). For compounds showing GCase inhibitory activity higher than 80% at 1 mM concentration, the IC50 values were determined by measuring the initial hydrolysis rate with 4-methylumbelliferyl-β-D-glucoside (3.33 mM). Data obtained were fitted by using the appropriate equation (for more details, see the Supplementary Materials).
IC50 for compounds 9, 10, 12 and 21 towards human lysosomal β-glucosidase The IC50 values of inhibitors against β-glucosidase were determined by measuring the initial hydrolysis rate with 4-methylumbelliferyl-β-D-glucoside (3.33 mM). Data obtained were fitted to the following equation using the Origin Microcal program. where Vi/Vo, represent the ratio between the activity measured in the presence of the inhibitor (Vi) and the activity of the control without the inhibitor (V0), “x” the inhibitor concentration, Max and Min, the maximal and minimal enzymatic activity observed, respectively.
Figure S48: IC of compound 9 towards GCase
Figure S49: IC50 of compound 10 towards GCase
(also on this page, place not known: Min x MinMax Vo Vi slope + […] […] […] […] […] […]+ −= 1 be tween (V i) (V 0), IC50) […]

The target in series [4] is T2, human lysosomal β-galactosidase (β-Gal). Briefly: β-Gal inhibition in human leukocyte homogenates. It counts as biochemical. To be noted: compounds 1 mM; human leukocytes extracts. On the procedure: as §1
β-Gal activity was measured in a flat-bottomed 96-well plate. Azasugar solution (3 μL), 4.29 μg/μL leukocytes homogenate 1:10 (7 μL), and substrate 4-methylumbelliferyl β-D-galactopyranoside (1.47 mM, 20 μL, Sigma–Aldrich) in acetate buffer (0.1 M, pH 4.3) containing NaCl (0.1 M) and sodium azide (0.02%) were incubated at 37 °C for 1 h. The reaction was stopped by addition of sodium carbonate (200 μL; 0.5 M, pH 10.7) containing Triton X-100 (0.0025%), and the fluorescence 4-methylumbelliferone released by β-galactosidase activity was measured in SpectraMax M2 Microplate Reader (λex = 365 nm and λem = 435 nm; Molecular Devices LLC, San Jose, CA, US). Inhibition is given with respect to the control (without azasugar). Data are mean SD (n = 3).

The test system of series [5] is mutant β-Gal in GM1-gangliosidosis patient fibroblasts. As to conditions: cited from earlier work.
Series [6] concerns the target T3, GCase in fibroblasts with the N370S/RecNcil mutation (Homo sapiens, UniProt P04062, N409S).
T3 construct: Fibroblasts with the N370S/RecNcil mutation from patients with Gaucher disease; host or cells: human Gaucher patient fibroblasts, N370S/RecNciI
T3 sequence (P04062 40-536 N409S): T1 sequence (P04062 40-536) with N370S
More on the design: method as in PMID 26376302. To be noted: at 100 µM; cited from earlier work.

The next series has as its system human lysosomal β-Gal. As to conditions: cited from earlier work.

In the case of `CCCCCCCCCCCC[C@H]1NC[C@@H](O)[C@@H](O)[C@@H]1O` [compound 38], in series [1], the “GCase Inhibition (%)” value was 100 ^d % and the concentration for half-maximal inhibition (IC50) was 1.5 ± 0.1 µM. Further, the “β-Gal Inhibition (%)” value in series [2] was 5 ^d %.

For the compound `CCCCCCC#C[C@]1(O)CNC[C@@H](O)[C@H]1O` [compound 33, (3S, 4R, 5R)-3,4,5-Trihydroxy-3-(oct-1-yn-1-yl)-Piperidine], the values for the inhibition at 1000 µM in series [3] and in series [4] were 65% and 4%, respectively.

With `O[C@@H]1CNC[C@@](O)(C#Cc2ccccc2)[C@@H]1O` [compound 32, (3S, 4R, 5R)-3,4,5-Trihydroxy-3-(Phenylethynyl)-Piperidine], in series [3], testing at 1000 µM gave an inhibition of 25%. Further, the “β-Gal Inhibition (%)” value in series [4] is listed as 16%.

Consider `CCCCCCCC[C@@H]1NC[C@@H](O)[C@@H](O)[C@@H]1O` [compound 39], for which, in series [1], the “GCase Inhibition (%)” value is recorded as 80 ^d % and the concentration for half-maximal inhibition (IC50) was 94 ± 5 µM. Further, the “β-Gal Inhibition (%)” value in series [2] is given as 31 ^d %.

On to `CN(C)c1ccc(CC[C@]2(O)CNC[C@@H](O)[C@H]2O)cc1` [compound 15], for which the inhibition at 1000 µM in series [3] and in series [4] was 6% throughout.

Consider `O[C@@H]1CNC[C@@](O)(CCc2ccccc2)[C@@H]1O` [compound 11, (3S, 4R, 5R)-3,4,5-Trihydroxy-3-(2-Phenylethyl)-Piperidine], for which the inhibition at 1000 µM in series [3] came to 36%; in series [4] it was 0%.

In turn, `O[C@@H]1CNC[C@@](O)(CCc2ccsc2)[C@@H]1O` [compound 14, (3S, 4R, 5R)-3,4,5-Trihydroxy-3-((2-(3-Thienyl) Ethyl))-Piperidine] yielded a melting point of 73 to 75 °C. In series [3], this compound displayed an inhibition at 1000 µM of 9%. The same compound registered an inhibition at 1000 µM in series [4] of 16%.

As to `CCCCCCCC[C@H]1NC[C@@H](O)[C@@H](O)[C@@H]1O` [compound 37], in series [1], the “GCase Inhibition (%)” value is on record as 100 ^d % and the half-inhibitory concentration (IC50) is 29 ± 2 µM. In series [2], the “β-Gal Inhibition (%)” value is listed as 14 ^d %.

With `CCCCCCCCCN1C[C@H](O)[C@@H](O)[C@@H](O)[C@H]1CO` [compound 2, N-nonyl-DGJ], in series [5], the “rescue of intracellular activity of mutant β-Gal in GM1-gangliosidosis patient fibroblasts” value was “able to rescue the intracellular activity of mutant β-Gal”.

As to `O[C@@H]1[C@H](O)[C@H](O)CN[C@H]1C[C@H](O)c1ccccc1` [compound 6], the “increase of β-Gal activity in GM1 gangliosidosis patient fibroblasts” value in series [5] is listed as 2–6 fold.

As for `CCCCCCCC[C@@H](O)C[C@@H]1NC[C@@H](O)[C@@H](O)[C@H]1O` [compound 7], the “increase of β-Gal activity in GM1 gangliosidosis patient fibroblasts” value in series [5] was 2–6 fold.

Consider `CCCCCCCCN[C@H]1CNC[C@@H](O)[C@H]1O` [compound 36], for which, in series [1], the “GCase Inhibition (%)” value is given as 93 ^c % and the IC50 was 40 ± 3 µM. For the same compound, in series [6], the “rescue of GCase activity” value is given as 1.5 fold. Moreover, at 1000 µM the inhibition in series [4] was 15%.

As for `CC[C@]1(O)CNC[C@@H](O)[C@H]1O` [compound 13, (3S, 4R, 5R)-3-Ethyl-3,4,5-Trihydroxypiperidine], the inhibition at 1000 µM in series [3] amounted to 30%; in series [4], 3%.

Turning to `CCCCCCCCC[C@H]1NC[C@@H](O)[C@@H](O)[C@H]1CO` [compound 5], in series [5], the “rescue of mutant β-Gal activity in fibroblasts from GM1-gangliosidosis patients” value is on record as “able to rescue mutant β-Gal activity”. In addition, the half-maximal inhibitory concentration (IC50) in the series with human lysosomal β-Gal is 0.0004 µM.

For `CCCCC[C@H]1NC[C@@H](O)[C@@H](O)[C@H]1CO` [compound 4], in series [5], the “rescue of mutant β-Gal activity in fibroblasts from GM1-gangliosidosis patients” value is listed as “able to rescue mutant β-Gal activity”. Further, the half-inhibitory concentration (IC50) with human lysosomal β-Gal was 0.01 µM.

Consider `OC[C@H]1CNC[C@@H](O)[C@H]1O` [compound 3, 4-epi-isofagomine], for which the IC50 in the series on human lysosomal β-Gal was 1 µM.
